From patent US12012408B2, “Purine compounds and method for the treatment of cancer” (THE ROYAL INSTITUTION FOR THE ADVANCEMENT OF …, priority 2018, dated 2024)

Columns and labels:
[1] = system: Akt/mTOR pathway in MDA-MB-231 and BT-20 cells; test: Western blot of the Akt/mTOR pathway; assay type: cell-based; conditions: FIG. 4A
Protocol: (§1) Sub-confluent cells were washed with PBS, lysed in RIPA buffer (50 mM Tris-HCl at pH7.5, 150 mM sodium chloride, 1% tritonX-100, 0.1% SDS, 2 mM EDTA and 25 mM sodium fluoride) supplemented with 1 mM PMSF and protease inhibitor cocktail (Roche) for 10 min on ice and centrifuged (13,000 rpm at 4° C. for 20 min) to separate cell lysate. Cell lysate (50 μg protein, as measured by the Bradford protein assay) was then added with SDS sample buffer (Tris at pH 6.8, 20% glycerol, 5% SDS, bromophenol blue and β-mercaptoethanol) and boiled for 5 min. Samples were then resolved through 13% SDS-PAGE gels, transferred to nitrocellulose membrane, blotted with specific first antibodies at different dilution in cold room overnight, and then amplified with horseradish peroxidase-conjugated secondary antibodies for 1 hour in room temperature and enhanced by chemiluminescence detection system.
The PI3K/Akt/mTOR pathway is a well-established pathway that is frequently activated in cancer cells and acts as a key negative regulator of autophagy (Schmelzle T et al. TOR, a central controller of cell growth Cell 2000; 103:253-62; Shi J et al. IL10 inhibits starvation-induced autophagy in hypertrophic scar fibroblasts via cross talk between the IL10-IL10R-STAT3 and IL10-AKT-mTOR pathways Cell Death Dis 2016; 7:e2133). […]

[2] = system: Aurora A, Aurora B, Aurora C in MDA-MB-231 and BT-20 cells; test: Western blot of cellular Aurora kinase phosphorylation and expression; assay type: cell-based
Protocol: as §1
To further evaluate cellular Aurora kinase inhibitory activity of SLLN-15, western blot analysis was carried out in both MDA-MB-231 and BT-20 cell lines. […] To gain further insight into the mechanism underlying the regulation of Aurora A and B by SLLN-15, we next examined whether Aurora A and B were degraded via the proteasome pathway.

[3] = In vivo tolerability; parameters: species or system mice; conditions: administered intraperitoneally
Text: Breast cancer stem-like cells (BCSCs), heterogeneously subsisting as CD24low/CD44high and ALDHhigh subpopulations, are enriched in aggressive breast cancer subtypes and believed to be responsible for driving metastatic colonization. Despite evidence of a clinical association between BCSC and poor prognosis, effective therapeutic means to target this cell population is lacking. We identified SLLN-15 as a compound with selective anti-sternness activity across a panel of cell lines expressing ALDHhigh and CD24low/CD44high markers, including MDA-MB-231, SUM-149PT, BT-20, SKBR3, 4T1 and several anaplastic thyroid cell lines. […] In summary, our data foster that targeting regulatory networks driving sternness represent important therapeutic targets for treating metastatic breast disease.

[4] = system: MDA-MB-231 and BT-20 cells; test: Propidium iodide staining and flow cytometry of DNA content; assay type: cell-based; conditions: treatment for 24 hours; FIG. 6C
Protocol: Cells were seeded into six-well plates and treated with the indicated concentration of SLLN-15 for 24 hours. After harvesting, cells were fixed in 80% methanol at −20° C. overnight. The fixed cells were washed twice with cold phosphate-buffered saline (PBS), incubated for 1 hour with 0.1% Triton X-100 and 0.5 μg/ml RNase A, and then stained with propidium iodide (PI) (Sigma) at a final concentration of 10 μg/ml in the dark at 4° C. until analysis. The fluorescent signal was detected through the FL-2 channel using FACSCalibur flow cytometry (Becton Dickson), and the proportion of DNA in various phases was analyzed using FCS Express version 3.0 (De novo Software, Glendale, California, USA)

[5] = system: autophagy (LC3) in MDA-MB-231 and BT-20 cells; test: Autophagy markers: LC3 western blot, LC3 puncta immunofluorescence, mCherry-GFP-LC3 flux; assay type: cell-based
Protocol: as §1
Cells were grown on 18-mm cover glass, placed in 6-well culture plate for 24 hours, rinsed in PBS, fixed with 4% paraformaldehyde/PBS for 10 min, washed twice in PBS with 0.2% TritonX-100, blocked in PBS with 0.2% Triton X-100 containing 1% BSA (Bioshop) and incubated with primary antibodies overnight at 4° C. (all in 1/100 diluted in blocking solution). The cells were washed with PBS containing 0.2% TritonX-100 and subsequently incubated with Alexa Fluor 488-labelled, Alexa Fluor 594-labelled, or Alexa Fluor 647-labelled secondary antibodies (all were used at 1/500 dilution in blocking solution) for 1 hour in room temperature. The nuclei were stained with DAPI (0.1 μg/ml) for 5 min before mounted with aqueous mounting medium. Cells were imaged using WaveFX spinning disk confocal microscope system (Quorum Technologies INC.). Images shown are representative of three independent experiments.
In order to determine whether SLLN-15 affects autophagy in triple-negative breast cancer cells, we first investigated its effect on the formation of autophagosomes by detecting the conversion of LC3-I to lipidated LC3-II and the distribution of endogenous LC3 puncta, both classic markers of autophagy regulation (Klionsky D J et al. Guidelines for the use and interpretation of assays for monitoring autophagy (3rd edition) Autophagy 2016; 12:1-222). […] In order to visualize the induction of autophagy by SLLN-15, we then used transmission electron microscopy.
Distinguishing between autophagy inducers and inhibitors is a delicate task, since both cause a build-up of LC3-II and LC3-positive puncta (Mizushima N, et al. Methods in mammalian autophagy research Cell 2010; 140:313-26). Therefore, to further determine the role of SLLN-15 on autophagy, we next investigated its impact on autophagic flux using a tandem monomeric mCherry-GFP-tagged LC3. […] SLLN-15-induced autophagic flux was further examined in the presence or absence of the autophagosome-lysosome fusion inhibitor, chloroquine (CQ) (Mizushima N, et al. Methods in mammalian autophagy research Cell 2010; 140:313-26). […] This observation was further confirmed by detecting the number of LC3 puncta in SLLN-15-treated cells, as compared to SLLN-15 combined with CQ (FIG. 3D).

## c1nc2nc(Nc3ccc(N4CC[Se]CC4)cc3)nc(N[C@H]3CC[Se]C3)c2[nH]1 [SLLN-15]
[1]
  phosphorylation levels of Akt, mTOR, p70S6K, S6 and 4EBP1: decreased phosphorylation levels
[2]; 1 μM, FIG. 7A
  phosphorylation of Aurora A at Thr288, Aurora B at Thr232, Aurora C at Thr198: strongly inhibited phosphorylation of both Aurora A at Thr288 and B at Thr232 but not Aurora C at Thr198
[2]; BT-20 cells, 6 hours post-treatment, FIG. 7C
  expression of Aurora A over time: downregulated the expression of Aurora A at earlier time points
[2]; dose-dependent, FIG. 7A
  Aurora A and Aurora B expression: decreased both Aurora A and Aurora B expression
[3]
  tolerability: well-tolerated
[4]
  apoptosis (sub-G1 phase): no obvious apoptosis
  cells arrested in G2/M phase and polyploidy (>4N): significantly higher percentage
[5]; FIG. S2
  expression level of p62/SQSTM1, Beclin1, Atg5 and Atg7: no changes in their expression levels were observed
[5]; MDA-MB-231 and BT-20 cells, FIGS. 3A and B
  autophagic flux, mCherry-GFP-tagged LC3: increased formation of yellow fluorescence (autophagosomes) and red fluorescence (autophagolysosomes)
[5]; SLLN-15 combined with chloroquine (CQ), compared to SLLN-15 alone, FIG. 3C
  LC3-II/LC3-I ratio: enhanced LC3-II/LC3-I ratio
[5]; combination of SLLN-15 with 3-methyladenine (3-MA), FIG. 5C
  LC3-II/I ratio: significantly decreases LC3-II/I ratio
[5]; dose-dependent, FIGS. 2A and B
  LC3-II conversion and LC3 puncta: increased LC3-II conversion and LC3 puncta
